# Measured values from patent US20240124483A1, “Methods for the Treatment of Fibrotic Disease” (SHY Therapeutics, LLC, priority 2021, published 2024).
# Where two headings read alike, the source gives them in different places.
# Key:
# KRas G12D mutant = KRas G12D mutant (Homo sapiens (Human), UniProt P01116, G12D); experiment: Ras GTP Binding Domain Inhibition Assay, KRas G12D mutant; settings: for inhibition at 20 µM: Table 7; for KRas G12D mutant + SOS: % inh. / KRas G12D mutant: % inh.: 20 uM, Table 8
# Method in brief: (§1)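 Fluorescent GTP binding to plate-captured His-tagged Ras: compound 20 μM (or dilution series for IC50), 3 h RT, ±Sos GEF 10-30 μg/mL last hour; then 100 nM Cy3/Cy5-GTP 45 min RT, wash ×3, read bound label.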
# KRas Q61H mutant = KRas Q61H mutant (Homo sapiens (Human), UniProt P01116, Q61H); experiment: Ras GTP Binding Domain Inhibition Assay, KRas Q61H mutant; settings: 20 μM
# Method in brief: as §1
# MiaPaca2 = MiaPaca2 proliferation; format: cell-based; settings: Homo sapiens, MIA PaCa-2; for inhibition at 10 µM: read-out: % inh of proliferation in MiaPaca2
# Smad2/3 phosphorylation = experiment: Phospho-Smad2/3 Inhibition Assay in Panc-1 (western blot); format: cell-based; settings: Homo sapiens; 10 μM, 3 hours; PANC-1 stimulated with 10 ng/ml TGF-b1 for 1 hour; read-out: % inh of Smad2/3 phosphorylation in PANC-1
# Method in brief: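 Serum-starved cells (0.5% FBS overnight) pretreated 3 h at 37 °C with compound at 10 μM or serial dilutions for IC50, in 0.3% DMSO. TGF-b1 10 ng/ml stimulation: 1 h for Panc-1 (human), 20 min for C2C12 (mouse). Phospho-Smad2 (Ser465/467) and phospho-Smad3 (Ser423/425) measured by western blot of lysates.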
# KRas G12C mutant = KRas G12C mutant (Homo sapiens (Human), UniProt P01116, G12C); experiment: Ras GTP Binding Domain Inhibition Assay, KRas G12C mutant
# Method in brief: as §1
# [1] = + SOS, read-out: KRas G12D mutant + SOS: % inh.
# [2] = without SOS, read-out: KRas G12D mutant: % inh.
# [3] = + SOS, read-out: KRas Q61H mutant + SOS: % inh.
# [4] = without SOS, read-out: KRas Q61H mutant: % inh.
# [5] = + SOS, read-out: KRas G12C mutant + SOS: % inh.
# [6] = without SOS, read-out: KRas G12C mutant: % inh.
# Chain of KRas Q61H mutant (P01116 other isoform, or with tags, fused parts or gaps Q61H): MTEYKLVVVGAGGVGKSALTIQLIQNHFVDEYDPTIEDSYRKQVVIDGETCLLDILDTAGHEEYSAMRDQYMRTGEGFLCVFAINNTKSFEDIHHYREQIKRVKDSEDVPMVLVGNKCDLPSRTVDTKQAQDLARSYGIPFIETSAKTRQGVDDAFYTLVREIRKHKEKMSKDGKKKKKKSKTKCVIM
# Chain of KRas G12C mutant (P01116 other isoform, or with tags, fused parts or gaps G12C): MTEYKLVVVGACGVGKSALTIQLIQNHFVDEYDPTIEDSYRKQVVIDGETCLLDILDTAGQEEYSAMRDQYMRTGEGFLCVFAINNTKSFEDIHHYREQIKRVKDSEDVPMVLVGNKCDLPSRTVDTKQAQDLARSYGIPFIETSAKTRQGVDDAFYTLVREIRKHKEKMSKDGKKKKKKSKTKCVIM
# Chain of KRas G12D mutant (P01116 other isoform, or with tags, fused parts or gaps G12D): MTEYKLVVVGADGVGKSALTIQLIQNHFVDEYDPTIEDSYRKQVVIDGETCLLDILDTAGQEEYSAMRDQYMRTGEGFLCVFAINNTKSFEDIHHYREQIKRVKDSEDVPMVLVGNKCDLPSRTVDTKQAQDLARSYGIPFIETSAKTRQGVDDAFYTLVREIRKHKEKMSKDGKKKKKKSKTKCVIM
SMILES,inhibition at 20 µM (KRas G12D mutant; [1]) [%],KRas G12D mutant + SOS: % inh. (KRas G12D mutant; + SOS),inhibition at 20 µM (KRas G12D mutant; [2]) [%],KRas G12D mutant: % inh. (KRas G12D mutant; without SOS),inhibition at 20 µM (KRas Q61H mutant; [3]) [%],inhibition at 20 µM (KRas Q61H mutant; [4]) [%],IC50 (MiaPaca2) [µM],inhibition at 10 µM (MiaPaca2) [%],inhibition at 10 µM (Smad2/3 phosphorylation) [%],inhibition at 20 µM (KRas G12C mutant; [5]) [%],inhibition at 20 µM (KRas G12C mutant; [6]) [%]
"COc1cc(Cn2c(-c3nccn3C)nc3sc(-c4ccn(C(C)C)n4)c(C)c3c2=O)ncn1 [Compound 35, 6-(1-Isopropyl-1H-pyrazol-3-yl)-3-((6-methoxypyrimidin-4-yl)methyl)-5-methyl-2-(1-methyl-1H-imidazol-2-yl)thieno[2,3-d]pyrimidin-4(3H)-one]",0,0 (0 = 0% inhibition),1 to 25,A (A = 1-25% inhibition),1 to 25,1 to 25,> 10,0,0,1 to 25,0
"COCCCn1c(-c2nccn2C)nc2sc(-c3ccn(C(C)C)n3)c(-c3ccccc3)c2c1=O [Compound 36, 6-(1-Isopropyl-1H-pyrazol-3-yl)-3-(3-methoxypropyl)-2-(1-methyl-1H-imidazol-2-yl)-5-phenylthieno[2,3-d]pyrimidin-4(3H)-one]",0,0 (0 = 0% inhibition),0,0 (0 = 0% inhibition),0,0,5 to 10,76 to 100,0,1 to 25,0
"COCCCOc1nc(-c2nccn2C)nc2sc(-c3ccn(C(C)C)n3)c(-c3ccccc3)c12 [Compound 37, 6-(1-Isopropyl-1H-pyrazol-3-yl)-4-(3-methoxypropoxy)-2-(1-methyl-1H-imidazol-2-yl)-5-phenylthieno[2,3-d]pyrimidine]",0,0 (0 = 0% inhibition),0,0 (0 = 0% inhibition),0,0,> 10,1 to 25,0,0,0
"COc1cccc(-c2sc3nc(-c4nccn4C)nc(N[C@H]4C[C@H](OC)C4)c3c2-c2ccccc2)c1F [Compound 40, 6-(2-Fluoro-3-methoxyphenyl)-N-((1r,3r)-3-methoxycyclobutyl)-2-(1-methyl-1H-imidazol-2-yl)-5-phenylthieno[2,3-d]pyrimidin-4-amine]",76 to 100,D (D = 76-100% inhibition),46 to 75,C (C = 46-75% inhibition),76 to 100,76 to 100,1 to 4.99,76 to 100,76 to 100,76 to 100,46 to 75
"COc1cccc(-c2sc3nc(-c4nccn4C)nc(N[C@H]4C[C@H](OC)C4)c3c2C)c1F [Compound 42, 6-(2-Fluoro-3-methoxyphenyl)-N-((1r,3r)-3-methoxycyclobutyl)-5-methyl-2-(1-methyl-1H-imidazol-2-yl)thieno[2,3-d]pyrimidin-4-amine]",76 to 100,D (D = 76-100% inhibition),26 to 45,B (B = 26-45% inhibition),76 to 100,46 to 75,5 to 10,76 to 100,1 to 25,76 to 100,46 to 75
"COc1nccc(-c2sc3nc(-c4nccn4C)nc(N[C@H]4C[C@H](OC)C4)c3c2-c2ccccc2)c1F [Compound 45, 6-(3-Fluoro-2-methoxypyridin-4-yl)-N-((1r,3r)-3-methoxycyclobutyl)-2-(1-methyl-1H-imidazol-2-yl)-5-phenylthieno[2,3-d]pyrimidin-4-amine]",46 to 75,C (C = 46-75% inhibition),46 to 75,C (C = 46-75% inhibition),76 to 100,46 to 75,1 to 4.99,76 to 100,76 to 100,76 to 100,26 to 45
"COc1cc(-c2sc3nc(-c4nccn4C)nc(N[C@H]4C[C@H](OC)C4)c3c2-c2ccccc2)ccn1 [Compound 46, N-((1r,3r)-3-Methoxycyclobutyl)-6-(2-methoxypyridin-4-yl)-2-(1-methyl-1H-imidazol-2-yl)-5-phenylthieno[2,3-d]pyrimidin-4-amine]",46 to 75,C (C = 46-75% inhibition),46 to 75,C (C = 46-75% inhibition),76 to 100,76 to 100,1 to 4.99,76 to 100,76 to 100,76 to 100,26 to 45
